According to PubChem BioAssay AID1845209 (Molecular Pharmacology Branch, DTP, NCI, 2023):

Tested on: NCI-H211 tumor spheroids, viability percent test/control
Assay: Anticancer human tumor NCI-H211 cell line growth inhibition;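 further: spheroids exposed to agents for seven days before readout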
Settings: spheroids with HUVEC and MSC; for IC50: curve of first compound; for viability, T/C: stronger effect = lower value
Text: Multicellular complex tumor spheroid response to DNA repair inhibitors in combination with DNA-damaging drugs
This study explores the anticancer activities of DNA-damaging drugs and inhibitors of DNA damage repair, both as single agents and in combinations. Complex tumor spheroids comprised of malignant cells, endothelial cells and mesenchymal stem cells served as an in vitro model for human solid tumors. This model system incorporates physiologically relevant features and patient-derived or established malignant cell lines with clinically relevant genetic alterations from many tumor types. Twenty-six patient-derived or established malignant cell lines were evaluated representing sarcoma, melanoma, small cell lung cancer (SCLC), non-small cell lung cancer (NSCLC), as well as bladder, ovarian and pancreatic cancers. The concentration ranges selected for each drug and investigational agent were based upon clinically achievable concentrations if the clinical Cmax of the agent was known.
Compounds. The drugs and compounds olaparib (NSC753686), talazoparib (NSC767125), berzosertib (NSC777718), elimusertib (NSC800525), nedisertib (NSC802822), VX-984 (NSC792969), AZD-1390 (NSC803789), temozolomide (NSC362856), topotecan (NSC609699), trabectedin (NSC813783), staurosporine (NSC755774), and gemcitabine (NSC613327) were obtained from the National Cancer Institute (NCI) Developmental Therapeutics Program Chemical Repository. The FDA-approved anticancer drug set is available from the Developmental Therapeutics Program at https://dtp.cancer.gov/organization/dscb/obtaining/available_plates.htm. […] The stock solutions were prepared in dimethyl sulfoxide (DMSO, Sigma-Aldrich, St. Louis, MO, cat. D2650) at 400-fold the tested concentration and stored at -70 degrees C. Prior to their use, the stock solutions were diluted in fresh medium and the final DMSO concentration in the assay was 0.25% (v/v). All drugs and investigational agents were tested over a range starting from a high concentration at or near the clinical Cmax and decreasing in half-log increments. If the clinical Cmax for an agent had not been determined, the highest concentration tested was 10 microM.
Cell Lines. The patient-derived cancer cell (PDC) lines: 156681-154-R-J1-PDC, 283228-195-R-J1-PDC, 287954-098-R-J1-PDC, 292921-168-R-J2-PDC, 349418-098-R-PDC, 425362-245-T-J1-PDC, 556581-035-R-J1-PDC, and BL0293-F563-PDC were received from the NCI Patient-Derived Models Repository (PDMR, https://pdmr.cancer.gov). The established cell lines HS-SY-2 (RRID:CVCL_8719), MPNST, and SYO-1 (RRID:CVCL_7146) were obtained from the Sloan Kettering Institute. The alveolar soft parts sarcoma cell line ASPS-1 (RRID:CVCL_S738) was established at the NCI and grown from internal seed stocks. The following established cell lines were purchased from the American Type Culture Collection (ATCC, Manassas, VA): G-401 (ATCC, cat. CRL-1441, RRID:CVCL_0270), SW982 (ATCC, cat. HTB-93, RRID:CVCL_1734), VA-ES-BJ (ATCC, cat. CRL-2138, RRID:CVCL_1785), NCI-H719 (ATCC, cat. CRL-5837, RRID:CVCL_1582), NCI-H196 (ATCC, cat. CRL-5823, RRID:CVCL_1509), NCI-H841 (ATCC, cat. CRL-5845, RRID:CVCL_1595), NCI-H1618 (ATCC, cat. CRL-5879, RRID:CVCL_1480), NCI-H1876 (ATCC, cat. CRL-5902, RRID:CVCL_1503), DMS 114 (ATCC, cat. CRL-2066; RRID:CVCL_1174), NCI-H211 (ATCC, cat. CRL-5824; RRID:CVCL_1529), and SW 1271 (ATCC, cat. CRL-2177, RRID:CVCL_1716). The small cell lung cancer cell line COR-L88 was purchased from Sigma-Aldrich (cat. 92031917-1VL, RRID:CVCL_1141). The non-small cell lung cancer cell lines NCI-H226 (RRID:CVCL_1544) and NCI-H322M (RRID:CVCL_1557) were established at the NCI and grown from internal seed stocks. Pooled donor human umbilical vein endothelial cells (HUVEC, Lonza, cat. CC-2519) and human mesenchymal stem cells (hMSC, Lonza, cat. PT-2501) were purchased from Lonza (Walkersville, MD).
Cell Culture. All cells were maintained in an incubator at 37 degrees C and 5% CO2 with 95% humidity. […]

Cc1sc2c(c1C)C(c1ccc(Cl)cc1)=NC(CC(=O)Nc1ccc(O)cc1)c1nnc(C)n1-2 (stereo not given) + CC[C@@]1(O)C(=O)OCc2c1cc1n(c2=O)Cc2cc3c(CN(C)C)c(O)ccc3nc2-1
IC50 (second compound 0.003 µM): < 9.49 nM
IC50 (second compound 0.00949 µM): < 9.49 nM
IC50 (second compound 0.03 µM): < 9.49 nM
IC50 (second compound 0.0949 µM): < 9.49 nM
IC50 (second compound 0.3 µM): < 9.49 nM
viability, T/C (second compound 0.003 µM, first compound 0.00949 µM): 30.2%
viability, T/C (second compound 0.003 µM, first compound 0.03 µM): 3.07%
viability, T/C (second compound 0.003 µM, first compound 0.0949 µM): 0.77%
viability, T/C (second compound 0.003 µM, first compound 0.3 µM): 0.53%
viability, T/C (second compound 0.003 µM, first compound 0.949 µM): 0.42%
viability, T/C (second compound 0.003 µM, first compound 3 µM): 0.44%
viability, T/C (second compound 0.00949 µM, first compound 0.00949 µM): 3.11%
viability, T/C (second compound 0.00949 µM, first compound 0.03 µM): 0.89%
viability, T/C (second compound 0.00949 µM, first compound 0.0949 µM): 0.89%
viability, T/C (second compound 0.00949 µM, first compound 0.3 µM): 0.57%
viability, T/C (second compound 0.00949 µM, first compound 0.949 µM): 0.46%
viability, T/C (second compound 0.00949 µM, first compound 3 µM): 0.57%
viability, T/C (second compound 0.03 µM, first compound 0.00949 µM): 0.97%
viability, T/C (second compound 0.03 µM, first compound 0.03 µM): 0.72%
viability, T/C (second compound 0.03 µM, first compound 0.0949 µM): 0.81%
viability, T/C (second compound 0.03 µM, first compound 0.3 µM): 0.54%
viability, T/C (second compound 0.03 µM, first compound 0.949 µM): 0.57%
viability, T/C (second compound 0.03 µM, first compound 3 µM): 0.55%
viability, T/C (second compound 0.0949 µM, first compound 0.00949 µM): 0.76%
viability, T/C (second compound 0.0949 µM, first compound 0.03 µM): 0.8%
viability, T/C (second compound 0.0949 µM, first compound 0.0949 µM): 0.73%
viability, T/C (second compound 0.0949 µM, first compound 0.3 µM): 0.79%
viability, T/C (second compound 0.0949 µM, first compound 0.949 µM): 0.59%
viability, T/C (second compound 0.0949 µM, first compound 3 µM): 0.6%
viability, T/C (second compound 0.3 µM, first compound 0.00949 µM): 0.94%
viability, T/C (second compound 0.3 µM, first compound 0.03 µM): 0.9%
viability, T/C (second compound 0.3 µM, first compound 0.0949 µM): 0.83%
viability, T/C (second compound 0.3 µM, first compound 0.3 µM): 0.85%
viability, T/C (second compound 0.3 µM, first compound 0.949 µM): 0.54%
viability, T/C (second compound 0.3 µM, first compound 3 µM): 0.51%
